# System: CUG foci in primary DM1 patient myoblasts
# Experiment: Dual-cut screening: FISH staining of CUG RNA foci
# Type: cell-based, human
# Settings: sgRNA pair; primary DM1 patient myoblasts; 3 μM DNA-PKi Compound 6 for 48 hours
# Protocol: (§1) RNPs were assembled with recombinant SluCas9 protein and chemically modified sgRNAs at a ratio of 1:3 (protein:sgRNA). For SINGLE-cut screening, RNP complexes were assembled with 30 pmol of SluCas9 and 90 pmol of sgRNA in P5 Primary Cell Nucleofector Solution (Lonza). After incubation at room temperature for 20 minutes, 10 μL of RNP complex were mixed with two hundred thousand of primary myoblasts resuspended in 10 μL of P5 Nucleofector Solution. For DOUBLE-cut screening, RNP complexes were first assembled for individual sgRNAs with 20 pmol of SluCas9 protein and 60 pmol of sgRNAs in 5 μL of P5 Nucleofector Solution. After incubation at room temperature for 20 minutes, the two RNP complexes (one for upstream sgRNA and one for downstream sgRNA) were mixed at 1:1 ratio and then further mixed with two hundred thousand of primary myoblasts resuspended in 10 μL of P5 Nucleofector Solution.
# (§2) The Nucleofector 96-well Shuttle System (Lonza) was used to deliver the SluCa9/sgRNA RNPs into primary DM1 patient myoblasts using the nucleofection program CM138. Following nucleofection, myoblasts from each well of nucleofection shuttle were split into six wells of the 96-well cell culture plate (Greiner, 655090) coated with matrigel. The first three wells were treated with DMSO for 48 hrs before changing to fresh myoblast growth medium, and the other three wells were treated with 3 μM of DNA-PKi Compound 6 for 48 hrs before changing to fresh myoblast growth medium. 72 hrs post nucleofection, two wells of DMSO-treated myoblasts and two wells of DNA-PKi-treated myoblasts from each nucleofection were harvested for genomic DNA extraction using the Kingfisher Flex purification system (Thermal Fisher), whereas one well of DMSO-treated myoblasts and one well of DNA-PKi-treated myoblasts were stained for RNA foci by FISH staining.
# Primary myoblasts were fixed for 15 min with 4% paraformaldehyde (PFA) and washed five times with 1×PBS for 10 min each at room temperature. Before staining, cells were permeabilized with 0.5% triton X-100 in 1×PBS for 5 min at room temperature, and then washed with 30% formamide and 2× saline-sodium citrate (SSC) mixture for 10 min at room temperature. Cells were then stained with 1 ng/μL of Cy3-PNA(CAG)5 probe (PNA Bio, F5001) diluted in 30% formamide, 2×SSC, 2 μg/mL BSA, 66 μg/mL yeast tRNA, and 2 mM vanadyl complex for 15 min at 80° C. Following probe staining, cells were then washed in 30% formamide and 2×SSC mixture for 30 min at 42° C., then washed in 30% formamide and 2×SSC mixture for 30 min at 37° C., and then washed in 1×SSC solution for 10 min at room temperature, and finally washed in 1×PBS for 10 min at room temperature. Cells were next stained with anti-MBNL1 antibody (Santa Cruz, 3A4) diluted in 1% bovine serum albumin (BSA) for overnight at 4° C., and washed twice with 1×PBS for 10 min each at room temperature. Cells were then incubated with the secondary antibody goat anti-rabbit Alexa 647 (Thermo Fisher, A32728) diluted in 1% BSA for 1 hr at room temperature, and washed twice with 1×PBS for 10 min each at room temperature. Next, cells were stained with Hoechst solution (Thermo Fisher, H3569) at 0.1 mg/ml for 5 min, and washed once with 1×PBS for 5 min. PBS was aspirated and fresh 100 μl of fresh PBS is added to each well. High-throughput acquisition of images was completed with the ImageXpress Micro Confocal High-Content Imaging System (Molecular Devices). RNA foci quantifications were accomplished with a customized analysis module of the MetaXpress program (Molecular Devices).
# To assess the efficiency of SluCas9 sgRNA pairs for inducing CTG repeat excision, Dual-cut screening was performed in which individual SluCas9 sgRNAs and recombinant SluCas9 protein were assembled into ribonucleoprotein (RNP) and delivered into primary DM1 patient myoblasts. Nucleofected myoblasts were treated with either DMSO (vehicle) or 3 μM of DNA-dependent Protein Kinase Inhibitor (DNA-PKi) Compound 6 for 48 hours. […]
row,Substance,% of CUG foci free nuclei (DNA-PKi) [%]
1,"SluU06 + SluD68 (guide 1 TGTCTTCGACTCCGGGGCCCCG; guide 2 CCTGTAGCCTGTCAGCGAGTCG; guide RNA; listed as DNA, chemistry not fully specified)",89.4
2,"SluU06 + SluD73 (guide 1 TGTCTTCGACTCCGGGGCCCCG; guide 2 CCAAAACGTGGATTGGGGTTGT; guide RNA; listed as DNA, chemistry not fully specified)",88.37
3,"SluU06 + SluD83 (guide 1 TGTCTTCGACTCCGGGGCCCCG; guide 2 GTGGGGACAGACAATAAATACC; guide RNA; listed as DNA, chemistry not fully specified)",89.45
4,"SluU06 + SluD100 (guide 1 TGTCTTCGACTCCGGGGCCCCG; guide 2 GTCCAGAGCTTTGGGCAGATGG; guide RNA; listed as DNA, chemistry not fully specified)",87.37
5,"SluU08 + SluD06 (guide 1 GCCCCGTTGGAAGACTGAGTGC; guide 2 CCAGGCTGAGGCCCTGACGTGG; guide RNA; listed as DNA, chemistry not fully specified)",86.69
6,"SluU08 + SluD14 (guide 1 GCCCCGTTGGAAGACTGAGTGC; guide 2 ATGGGCAAACTGCAGGCCTGGG; guide RNA; listed as DNA, chemistry not fully specified)",82.09
7,"SluU08 + SluD18 (guide 1 GCCCCGTTGGAAGACTGAGTGC; guide 2 TGGAGGATGGAACACGGACGGC; guide RNA; listed as DNA, chemistry not fully specified)",90.44

# Same assay, conditions: sgRNA pair; primary DM1 patient myoblasts; vehicle (DMSO)
row,Substance,% of CUG foci free nuclei (Vehicle) [%]
1,"SluU06 + SluD68 (guide 1 TGTCTTCGACTCCGGGGCCCCG; guide 2 CCTGTAGCCTGTCAGCGAGTCG; guide RNA; listed as DNA, chemistry not fully specified)",64.01
2,"SluU06 + SluD73 (guide 1 TGTCTTCGACTCCGGGGCCCCG; guide 2 CCAAAACGTGGATTGGGGTTGT; guide RNA; listed as DNA, chemistry not fully specified)",65.15
3,"SluU06 + SluD83 (guide 1 TGTCTTCGACTCCGGGGCCCCG; guide 2 GTGGGGACAGACAATAAATACC; guide RNA; listed as DNA, chemistry not fully specified)",66.03
4,"SluU06 + SluD100 (guide 1 TGTCTTCGACTCCGGGGCCCCG; guide 2 GTCCAGAGCTTTGGGCAGATGG; guide RNA; listed as DNA, chemistry not fully specified)",64.95
5,"SluU08 + SluD06 (guide 1 GCCCCGTTGGAAGACTGAGTGC; guide 2 CCAGGCTGAGGCCCTGACGTGG; guide RNA; listed as DNA, chemistry not fully specified)",59.22
6,"SluU08 + SluD14 (guide 1 GCCCCGTTGGAAGACTGAGTGC; guide 2 ATGGGCAAACTGCAGGCCTGGG; guide RNA; listed as DNA, chemistry not fully specified)",56.37
7,"SluU08 + SluD18 (guide 1 GCCCCGTTGGAAGACTGAGTGC; guide 2 TGGAGGATGGAACACGGACGGC; guide RNA; listed as DNA, chemistry not fully specified)",67.06

# System: CTG repeat in the 3′ UTR of human DMPK gene
# Experiment: Dual-cut screening: CTG repeat excision efficiency by loss-of-signal ddPCR
# Type: cell-based
# Settings: sgRNA pair; primary DM1 patient myoblasts; 3 μM DNA-PKi Compound 6 for 48 hours
# Protocol: as §1, §2
# The primers and probes of ddPCR are designed using the online primer design software Primer3Plus (http://www.bioinformatics.nl/cgi-bin/primer3plus/primer3plus.cgi). In some embodiments, two target primers/probe sets were used to detect CTG repeat excision, and a reference primers/probe set were used to amplify a region located in Exon 1 of human DMPK gene and to serve as a reference control for the target sets. The 24 μL of ddPCR reaction consists of 12 μL of Supermix for Probes (no dUTP) (Bio-Rad Laboratories), 1 μL of Reference primers mix (21.6 μM), 1 μL of Reference probe (6 μM), 1 μL of Target primers mix (21.6 μM), 1 μL of Target probe (6 μM), and 8 μL of sample genomic DNA. Droplets were generated using probe oil with the QX200 Droplet Generator (Bio-Rad Laboratories). Droplets were transferred to a 96-well PCR plate, sealed and cycled in a C1000 deep well Thermocycler (Bio-Rad Laboratories) under the following cycling protocol: 1 cycle at 95° C. for 10 min; 40 cycles of 94° C. for 30 see, and 58° C. for 1 min; 1 cycle at 98° C. for 10 min (for enzyme inactivation). The cycled plate was then transferred and read in the FAM and HEX channels using the Bio-Rad QX200 Droplet Reader (Bio-Rad Laboratories). ddPCR analysis is performed with the Bio-Rad QuantaSoft Pro Software.
# To assess the efficiency of SluCas9 sgRNA pairs for inducing CTG repeat excision, Dual-cut screening was performed in which individual SluCas9 sgRNAs and recombinant SluCas9 protein were assembled into ribonucleoprotein (RNP) and delivered into primary DM1 patient myoblasts. Nucleofected myoblasts were treated with either DMSO (vehicle) or 3 μM of DNA-dependent Protein Kinase Inhibitor (DNA-PKi) Compound 6 for 48 hours. 72 hours post-nucleofection, myoblasts were subjected to either genomic DNA isolation or RNA foci staining by fluorescence in situ hybridization (FISH).
# CRISPR repeat excision efficiency was assessed for each of the 88 pairs (FIG. 8A-B and Table 5). CTG repeat excision efficiency percentages are shown for vehicle (DMSO; white bars) and with DNA-PKi (black bars) (FIG. 8B and Table 5).
row,Substance,Excision efficiency (by ddPCR)
1,"SluU06 + SluD68 (guide 1 TGTCTTCGACTCCGGGGCCCCG; guide 2 CCTGTAGCCTGTCAGCGAGTCG; guide RNA; listed as DNA, chemistry not fully specified)",62.99
2,"SluU06 + SluD73 (guide 1 TGTCTTCGACTCCGGGGCCCCG; guide 2 CCAAAACGTGGATTGGGGTTGT; guide RNA; listed as DNA, chemistry not fully specified)",63.29
3,"SluU06 + SluD83 (guide 1 TGTCTTCGACTCCGGGGCCCCG; guide 2 GTGGGGACAGACAATAAATACC; guide RNA; listed as DNA, chemistry not fully specified)",66.18
4,"SluU06 + SluD100 (guide 1 TGTCTTCGACTCCGGGGCCCCG; guide 2 GTCCAGAGCTTTGGGCAGATGG; guide RNA; listed as DNA, chemistry not fully specified)",65.68
5,"SluU08 + SluD06 (guide 1 GCCCCGTTGGAAGACTGAGTGC; guide 2 CCAGGCTGAGGCCCTGACGTGG; guide RNA; listed as DNA, chemistry not fully specified)",59.11
6,"SluU08 + SluD14 (guide 1 GCCCCGTTGGAAGACTGAGTGC; guide 2 ATGGGCAAACTGCAGGCCTGGG; guide RNA; listed as DNA, chemistry not fully specified)",63.05
7,"SluU08 + SluD18 (guide 1 GCCCCGTTGGAAGACTGAGTGC; guide 2 TGGAGGATGGAACACGGACGGC; guide RNA; listed as DNA, chemistry not fully specified)",63.55

# Same assay, conditions: sgRNA pair; primary DM1 patient myoblasts; vehicle (DMSO)
row,Substance,Excision efficiency by ddPCR (Vehicle)
1,"SluU06 + SluD68 (guide 1 TGTCTTCGACTCCGGGGCCCCG; guide 2 CCTGTAGCCTGTCAGCGAGTCG; guide RNA; listed as DNA, chemistry not fully specified)",47.38
2,"SluU06 + SluD73 (guide 1 TGTCTTCGACTCCGGGGCCCCG; guide 2 CCAAAACGTGGATTGGGGTTGT; guide RNA; listed as DNA, chemistry not fully specified)",43.4
3,"SluU06 + SluD83 (guide 1 TGTCTTCGACTCCGGGGCCCCG; guide 2 GTGGGGACAGACAATAAATACC; guide RNA; listed as DNA, chemistry not fully specified)",46.13
4,"SluU06 + SluD100 (guide 1 TGTCTTCGACTCCGGGGCCCCG; guide 2 GTCCAGAGCTTTGGGCAGATGG; guide RNA; listed as DNA, chemistry not fully specified)",40.89
5,"SluU08 + SluD06 (guide 1 GCCCCGTTGGAAGACTGAGTGC; guide 2 CCAGGCTGAGGCCCTGACGTGG; guide RNA; listed as DNA, chemistry not fully specified)",46.6
6,"SluU08 + SluD14 (guide 1 GCCCCGTTGGAAGACTGAGTGC; guide 2 ATGGGCAAACTGCAGGCCTGGG; guide RNA; listed as DNA, chemistry not fully specified)",45.12
7,"SluU08 + SluD18 (guide 1 GCCCCGTTGGAAGACTGAGTGC; guide 2 TGGAGGATGGAACACGGACGGC; guide RNA; listed as DNA, chemistry not fully specified)",50.56

# From patent US20240173432A1, “Compositions and Methods for Treatment of Myotonic Dystrophy Type 1 with CRISPR/SluCas9” (Vertex Pharmaceuticals Incorporated, priority 2021, published 2024)
